Patent publication US20220339100A1, “THERMOSENSITIVE MODIFIED CHITIN HYDROGEL LOCAL ANESTHETIC-LOADED SUSTAINED-RELEASE ANALGESIA SYSTEM, PREPARATION METHOD AND USE” (Wuhan University, priority 2021, published 2022)
Counter-ions that a name gives are not always drawn.

Key:
[1] = test system: sciatic nerve of SD rats; assay: ultrasound-guided sciatic nerve block model, sensory block by hot plate method; assay type: in vivo, rat; conditions: 0.5 mL around sciatic nerve
Method: In order to evaluate the in-vivo analgesic effect of the drug-loaded sustained-release system, an ultrasound-guided sciatic nerve block model was used. Various sustained-release injection formulations containing ropivacaine were injected around the sciatic nerve of the right hind limb of SD rats under the guidance of ultrasound, and the nerve blocking effect was observed. The rats were anesthetized with 2% isoflurane and placed in a prone position. […] Then, the sensory and motor block of the right hind limbs of the rats were evaluated by a hot plate method and motor block 4-point method, respectively. […]
Operation with hot plate method: the rats were placed on a preheated metal surface (55±0.5° C.), which was surrounded by a cylindrical Plexiglas wall (20 cm high and 28 cm in diameter) to limit the movement of the rats. […] This time was recorded as the basic thermal latency (baseline) time of rats (tested 2 days before the beginning of the experiment), which was generally about 3-5 s, and the rats with too short or too long baseline time were excluded. In order to prevent tissue injury, if the rats still have no pain response after 20 s, the rats were taken out and the time was recorded as 20 s. […] The test data were expressed as percentage of maximum possible effect (MPE %) with the calculation formula as follows: […]

[2] = in-vitro cumulative drug release in PBS (dialysis bag, UV 263 nm); assay type: physicochemical; conditions: within 6 hours, 37° C., 100 rpm, same drug content as 2.0% system
Method: 1 ml of the above dispersion (suspension) was sucked with a precision syringe at 4° C. and put into a dialysis bag (molecular weight cut off: 8000-14000 Da), then the dialysis bag was put into a centrifuge tube which was equipped with 30 ml of PBS solution and placed in a 37° C. constant-temperature water-bath shaker that was vibrated at 100 rpm, samples were taken at different time. 2 ml of PBS solution was taken every time to be used as a sample supplemented with 2 mL of fresh PBS solution, the taken sample was analyzed by ultraviolet-visible spectrophotometry, the PBS solution was used as blank control, and a wavelength was detected as 263 nm. According to a standard curve of ropivacaine, the drug concentration of ropivacaine was calculated and a cumulative release curve was plotted. Three samples in each group were set for repetition. FIG. 1 is an in-vitro cumulative release curve of 2.0% R-HPCH-HA hydrogel sustained-release system represented by a 2.0% ropivacaine hydrochloride-loaded, wherein pure drugs (R) with the same drug content and an HPCH carrier (no hyaluronic acid, R-HPCH group) alone with the same drug content are used as control group. […] Thus, the injectable hydrogel drug delivery system comprising auxiliary component hyaluronic acid is benefit to the long-lasting local analgesia.

[3] = test system: human neuroblastoma cell lines (SH-SY5Y); assay type: cell-based; conditions: 24 h, 5 mM
Method: An in-vitro cytotoxicity test was performed on a ropivacaine-containing drug-loaded sustained-release system by using neuroblastoma cell line (SH-SY5Y) cells. Ropivacaine hydrochloride was dissolved into a PBS buffer to prepare a 10 mM ropivacaine solution, and the ropivacaine solution was diluted with a cell culture medium to prepare a cell culture medium with a concentration gradient of 0.5-5 mM in ropivacaine group; cell culture medium solutions containing HPCH2% and HA0.5% as well as a ropivacaine concentration of 10 mM were prepared at a low temperature and gelled at 37° C., and then a cell culture medium containing corresponding gel sustained-release systems and a ropivacaine concentration of 10 mM was prepared. SH-SY5Y cells were inoculated in a 96 well plate at a 10^4/mL cell density and normally cultured in a constant-temperature incubator for 24 h. Then, the above cell culture mediums containing pure drugs and drug gels were respectively added to be cultured for 24 h. The relative living cell numbers were tested by a Cell Counting Kit 8 (CCK-8) assay (FIG. 2).

Question: With `CCCN1CCCC[C@H]1C(=O)Nc1c(C)cccc1C` [ropivacaine, ropivacaine hydrochloride] as the molecule, how does the “time after which MPE value came back to the normal baseline” value [1] read?
Answer: Its value is 6 h.

Question: What about the “cumulative release rate of ropivacaine” value [2] of the same molecule?
Answer: Its value is “exceeds 80%”.

Question: And the cell viability [3]?
Answer: Its cell viability is 37.2%.
